Measured values taken from patent US6525001B1, “Substituted pyrimidine and pyridine herbicides” (Mid-American Commercialization Corporation, priority 1997, dated 2003).

Tests used:
Format in all cases: in vivo
Parameters in all cases: key: 0 is no effect; 10 is complete control
[1] = test system: blackgrass (Alopecurus myosuroides); experiment: Test B pre-/postemergence
Procedure, shortened: (§1)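 Seeds were planted and sprayed preemergence, while plants at 2 to 18 cm (1- to 4-leaf stage) were sprayed postemergence at the same time, with test chemical in a non-phytotoxic solvent mixture containing surfactant. After twelve to sixteen days in a greenhouse, injury was rated visually against untreated controls on a 0–10 scale.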

[2] = test system: broadleaf signalgrass (Brachiaria decumbens); experiment: Test B pre-/postemergence
Procedure, shortened: as §1

rice (Oryza sativa) = experiment: Test B flood test
Procedure, shortened: (§2)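 Plants were grown to the 2-leaf stage before treatment with test chemical, then held in a greenhouse for twelve to sixteen days. Injury was visually rated against untreated controls on a 0–10 scale, where 0 is no effect and 10 is complete control.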

[3] = test system: bamyardgrass (Echinochloa crus-galli); experiment: Test B flood test
Procedure, shortened: as §2

[4] = test system: smallflower flatsedge (Cyperus difformis); experiment: Test B flood test
Procedure, shortened: as §2

[5] = test system: duck salad (Heteranthera limosa); experiment: Test B flood test
Procedure, shortened: as §2

[6] = Rate 62 g/ha, Postemergence (flood test)
[7] = Rate 125 g/ha, Postemergence section (flood test species)
[8] = Rate 250 g/ha, Postemergence (flood test species)
[9] = Preemergence, Rate 62 g/ha, scale of 0 to 10
[10] = Rate 500 g/ha, Postemergence (flood test species)

Structure (SMILES)	Blackgrass plant response rating ([1]; Rate 125 g/ha, Postemergence)	Plant response rating, Blackgrass ([1]; Rate 125 g/ha, Preemergence)	Plant response rating, Blackgrass ([1]; Rate 250 g/ha, Postemergence)	Plant response rating, Blackgrass ([1]; Rate 250 g/ha, Preemergence)	B. signalgrass plant response rating ([2]; Rate 62 g/ha, Preemergence)	B. signalgrass plant response rating ([2]; Rate 125 g/ha, Postemergence)	Plant response rating, B. signalgrass ([2]; Rate 125 g/ha, Preemergence)	Plant response rating, B. signalgrass ([2]; Rate 250 g/ha, Postemergence)	Plant response rating, B. signalgrass ([2]; Rate 250 g/ha, Preemergence)	Rice plant response rating (rice (Oryza sativa); [7])	Plant response rating, Rice (rice (Oryza sativa); [8])	Barnyardgrass plant response rating [3, 7]	Plant response rating, Barnyardgrass [3, 8]	S. Flatsedge plant response rating [4, 7]	Plant response rating, S. Flatsedge [4, 8]	Ducksalad plant response rating [5, 7]	Plant response rating, Ducksalad [5, 8]	Plant response rating, Blackgrass [1, 9]	Blackgrass plant response rating ([1]; Rate 62 g/ha, Postemergence)	Plant response rating, Blackgrass ([1]; Rate 500 g/ha, Postemergence)	also measured
Cc1cnc(-n2cnc(C(F)(F)F)n2)nc1Cn1ccc(C(F)(F)F)n1 [Compound 51]	9	9	9	10	4	8	9	9	9	5	8	6	7	9	9	9	9	–	–	–	Plant response rating, Blackgrass ([1]; Rate 62 g/ha, Postemergence): 7; Blackgrass plant response rating ([1]; Rate 62 g/ha, Preemergence): 7; Plant response rating, B. signalgrass ([2]; Rate 62 g/ha, Postemergence): 2; Plant response rating, Rice (rice (Oryza sativa); [6]): 3; Plant response rating, Barnyardgrass [3, 6]: 5; Plant response rating, S. Flatsedge [4, 6]: 9; Plant response rating, Ducksalad [5, 6]: 8
Cc1cnc(-c2ccc(C(F)(F)F)cc2)nc1Cn1ccc(C#N)n1 [Compound 53]	1	0	1	1	0	1	1	2	2	1	1	2	2	8	9	2	5	0	1	6	Plant response rating, Blackgrass ([1]; Rate 500 g/ha, Preemergence): 2; B. signalgrass plant response rating ([2]; Rate 62 g/ha, Postemergence): 1; Plant response rating, B. signalgrass ([2]; Rate 500 g/ha, Postemergence): 2; Plant response rating, B. signalgrass ([2]; Rate 500 g/ha, Preemergence): 6; Rice plant response rating (rice (Oryza sativa); [6]): 1; Plant response rating, Rice (rice (Oryza sativa); [10]): 2; Barnyardgrass plant response rating [3, 6]: 1; Plant response rating, Barnyardgrass [3, 10]: 2; S. Flatsedge plant response rating [4, 6]: 5; Plant response rating, S. Flatsedge [4, 10]: 9; Ducksalad plant response rating [5, 6]: 0; Plant response rating, Ducksalad [5, 10]: 7
Cc1cnc(-c2ccc(C(F)(F)F)cc2)nc1Cn1cc(Br)cn1 [Compound 54]	1	1	2	3	0	3	1	4	3	2	3	3	3	8	9	0	1	0	1	3	Plant response rating, Blackgrass ([1]; Rate 500 g/ha, Preemergence): 4; B. signalgrass plant response rating ([2]; Rate 62 g/ha, Postemergence): 3; Plant response rating, B. signalgrass ([2]; Rate 500 g/ha, Postemergence): 5; Plant response rating, B. signalgrass ([2]; Rate 500 g/ha, Preemergence): 6; Rice plant response rating (rice (Oryza sativa); [6]): 1; Plant response rating, Rice (rice (Oryza sativa); [10]): 4; Barnyardgrass plant response rating [3, 6]: 2; Plant response rating, Barnyardgrass [3, 10]: 4; S. Flatsedge plant response rating [4, 6]: 6; Plant response rating, S. Flatsedge [4, 10]: 9; Ducksalad plant response rating [5, 6]: 0; Plant response rating, Ducksalad [5, 10]: 3
Cc1cnc(-n2cnc(C(F)(F)F)c2)nc1C(=O)c1cccc(C(F)(F)F)c1 [Compound 61]	4	3	6	5	5	4	7	4	8	0	2	3	3	7	8	1	3	1	3	8	Plant response rating, Blackgrass ([1]; Rate 500 g/ha, Preemergence): 8; B. signalgrass plant response rating ([2]; Rate 62 g/ha, Postemergence): 3; Plant response rating, B. signalgrass ([2]; Rate 500 g/ha, Postemergence): 5; Plant response rating, B. signalgrass ([2]; Rate 500 g/ha, Preemergence): 9; Rice plant response rating (rice (Oryza sativa); [6]): 0; Plant response rating, Rice (rice (Oryza sativa); [10]): 2; Barnyardgrass plant response rating [3, 6]: 2; Plant response rating, Barnyardgrass [3, 10]: 4; S. Flatsedge plant response rating [4, 6]: 3; Plant response rating, S. Flatsedge [4, 10]: 9; Ducksalad plant response rating [5, 6]: 0; Plant response rating, Ducksalad [5, 10]: 5
Cc1cnc(-n2ccc(C(F)(F)C(F)(F)F)n2)nc1C(=O)c1cccc(OC(F)(F)F)c1 [Compound 62]	1	1	2	1	4	2	4	2	8	0	0	2	3	6	7	0	0	1	1	4	Plant response rating, Blackgrass ([1]; Rate 500 g/ha, Preemergence): 5; B. signalgrass plant response rating ([2]; Rate 62 g/ha, Postemergence): 2; Plant response rating, B. signalgrass ([2]; Rate 500 g/ha, Postemergence): 3; Plant response rating, B. signalgrass ([2]; Rate 500 g/ha, Preemergence): 9; Rice plant response rating (rice (Oryza sativa); [6]): 0; Plant response rating, Rice (rice (Oryza sativa); [10]): 0; Barnyardgrass plant response rating [3, 6]: 1; Plant response rating, Barnyardgrass [3, 10]: 4; S. Flatsedge plant response rating [4, 6]: 3; Plant response rating, S. Flatsedge [4, 10]: 8; Ducksalad plant response rating [5, 6]: 0; Plant response rating, Ducksalad [5, 10]: 2
